Assay results reported in PMC6648700 (Molecular pharmaceutics, 2018).

Tests used:
[1] = system: Nocardia asteroides (clinical isolate); test: Cell viability IC50 screen; settings: read-out: IC50 without a β-lactam, Nast
[2] = system: Mycobacterium abscessus PM3386 Δbla; format: cell-based; settings: GSK690693 50 μM
[3] = system: Mycobacterium tuberculosis H37Rv ΔRD1 ΔpanCD strain mc^26030; format: cell-based; settings: for activity against Mtb alone: auxotrophic Mtb H37Rv; for activity against Mtb with sub-MIC50 dose of meropenem: meropenem 1μg/mL with clavulonic acid
[4] = system: M. marinum; test: Growth inhibition and β-lactam potentiation, M. marinum; format: cell-based, Mycobacterium marinum
[5] = in vivo; cited from earlier work
[6] = system: Mycobacterium chelonae (clinical isolate); test: MIC shift, M. chelonae
[7] = system: Mycobacterium smegmatis MC^2155 WT; test: Cell viability IC50 screen; settings: for potentiation of IPA by isoniazid, Msmeg: isoniazid at four times less than the lethal concentration; for potentiation with a sub-MIC50 dose of meropenem to inhibit Msmeg growth: meropenem 1.25μg/mL
[8] = target: PknB 1–331 (Mycobacterium tuberculosis, UniProt P9WI81); format: biochemical; settings: at concentrations tested
Sequence of PknB 1–331 (P9WI81 1-331): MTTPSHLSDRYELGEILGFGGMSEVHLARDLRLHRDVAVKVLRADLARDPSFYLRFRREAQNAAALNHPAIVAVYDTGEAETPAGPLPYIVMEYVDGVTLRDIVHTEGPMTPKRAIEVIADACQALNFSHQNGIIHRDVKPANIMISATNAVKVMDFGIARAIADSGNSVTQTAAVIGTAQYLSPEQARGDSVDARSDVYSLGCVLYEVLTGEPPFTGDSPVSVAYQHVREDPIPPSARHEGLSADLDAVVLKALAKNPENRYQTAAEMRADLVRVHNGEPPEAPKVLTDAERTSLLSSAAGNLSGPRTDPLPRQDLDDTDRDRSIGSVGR

Row | Compound | IC50 [1] [µM] | activity against Mtb alone [3] | activity against Mtb with sub-MIC50 dose of meropenem [3] | potentiation of IPA by isoniazid, Msmeg [7] | potentiation with a sub-MIC50 dose of meropenem to inhibit Msmeg growth [7] | further results
1 | CCn1c(-c2nonc2N)nc2c(C#CC(C)(C)O)ncc(OCC3CCNCC3)c21 [GSK554170A] | 24 to 100 | – | – | – | – | –
2 | CCn1c(-c2nonc2N)nc2c(C#CC(C)(C)O)ncc(OC[C@H]3CCCNC3)c21 [GSK690693, 4-(2-(4-amino-1,2,5-oxadiazol-3-yl)-1-ethyl-7-{[(3S)-3-piperidinylmethyl]oxy}−1H-imidazo[4,5-c]pyridin-4-yl)-2-methyl-3-butyn-2-ol] | 24 to 100 | not active | not active | did not potentiate | able to potentiate | potentiation of kanamycin, Mab [2]: no effect; potentiation of β-lactams, M. marinum ([4]; Fig. S7C): does not potentiate; activity alone, M. marinum growth ([4]; Fig. S7D): effective on its own; side-effects in phase I clinical trials [5]: only moderate side-effects; potentiation of meropenem, Mche ([6]; with 8 μg/mL clavulanate): two-fold; potentiation of meropenem, Mche ([6]; without clavulanate): did not see any potentiation
3 | CCn1c(-c2nonc2N)nc2c(C#CC(C)(C)O)nc(OC[C@H](N)c3ccccc3)cc21 [GSK943949A] | 24 to 100 | – | – | – | – | –
4 | CCn1c(-c2nonc2N)nc2c(C#CC(C)(C)O)nc(O[C@@H](CN)c3ccccc3)cc21 [GSK1007102B] | 24 to 100 | able to attenuate the growth | activity was shifted | did not potentiate | the most potent | –
5 | CCn1c(-c2nonc2N)nc2cncc(CNC3CCNCC3)c21 [SB-747651A] | – | – | – | – | – | PknB inhibitory activity [8]: no inhibitory activity
